Reference: patent US8481540B2, “Inhibitors of bruton's tyrosine kinase” (Hoffmann-La Roche Inc., priority 2010, dated 2013)

Tested on: B cells in human blood
Experiment: Inhibition of B cell activation in whole blood measured by CD69 expression
Format: cell-based
Details: CD69-positive, CD20-positive cells after anti-IgM stimulation, human whole blood, 20 hours, read-out: Human Whole Blood
Method: Inhibition of B Cell Activation in Whole Blood Measured by CD69 Expression
A procedure to test the ability of Btk inhibitors to suppress B cell receptor-mediated activation of B cells in human blood is as follows:
Human whole blood (HWB) is obtained from healthy volunteers, with the following restrictions: 24 hr drug-free, non-smokers. Blood is collected by venipuncture into Vacutainer tubes anticoagulated with sodium heparin. Test compounds are diluted to […] the desired starting drug concentration in PBS (20×), followed by three-fold serial dilutions in 10% DMSO in PBS to produce a nine point dose-response curve. 5.5 μl of each compound dilution is added in duplicate to a 2 ml96-well V bottom plate (Analytical Sales and Services, #59623-23); 5.5 μl of 10% DMSO in PBS is added to control and no-stimulus wells. HWB (100 μl) is added to each well, and after mixing the plates are incubated at 37 C, 5% CO2, 100% humidity for 30 minutes. Goat F(ab′)2 anti-human IgM (Southern Biotech, #2022-14) (10 μl of a […] solution, 50 μg/ml final concentration) is added to each well (except the no-stimulus wells) with mixing and the plates are incubated for an additional 20 hours.
At the end of the 20 hour incubation, samples are incubated with florescent-probe-labeled anti-bodies (15 μl PE Mouse anti-Human CD20, BD Pharmingen, #555623, and/or 20 ul APC Mouse anti-Human CD69, BD Pharmingen #555533) for 30 minutes, at 37 C, 5% CO2, 100% humidity. Included are induced control, unstained and single stains for compensation adjustments and initial voltage settings. Samples are then lysed with 1 ml of 1× Pharmingen Lyse Buffer (BD Pharmingen #555899), and plates are centrifuged at 1800 rpm for 5 minutes. Supernatants are removed via suction and the remaining pellets are lysed again with another 1 ml of 1× Pharmingen Lyse Buffer, and plates are spun down as before. Supernatants are aspirated and remaining pellets are washed in FACs buffer (PBS+1% FBS). After a final spin, the supernantants are removed and pellets are resuspended in 180 μl of FACs buffer. Samples are transferred to a 96 well plate suitable to be run on the HTS 96 well system on the BD LSR II flow cytometer.
Using appropriate excitation and emission wavelengths for the fluorophores used, data are acquired and percent positive cell values are obtained using Cell Quest Software. Results are initially analyzed by FACS analysis software (Flow Jo). […] The IC50 values are calculated using XLfit software version 3, equation 201.
Representative compound data for this assay are listed below in Table II.

Row | SMILES | IC50
1 | Cc1cc(Nc2cc(-c3cccc(-n4ncc5cc(C(C)(C)C)cc(F)c5c4=O)c3CO)nn(C)c2=O)nn1C [I-31, 6-tert-Butyl-2-{3-[5-(1,5-dimethyl-1H-pyrazol-3-ylamino)-1-methyl-6-oxo-1,6-dihydro-pyridazin-3-yl]-2-hydroxymethyl-phenyl}-8-fluoro-2H-phthalazin-1-one] | 32 nM
2 | CN1CC[C@@H](c2ccc(Nc3cc(-c4cccc(-n5ncc6cc(C(C)(C)C)cc(F)c6c5=O)c4CO)nn(C)c3=O)nc2)C1 [I-32, 6-tert-Butyl-8-fluoro-2-(2-hydroxymethyl-3-[1-methyl-5-[5-((S)-1-methyl-pyrrolidin-3-yl)-pyridin-2-ylamino]-6-oxo-1,6-dihydro-pyridazin-3-yl]-phenyl)-2H-phthalazin-1-one] | 23 nM
3 | CN1CC[C@H](c2ccc(Nc3cc(-c4cccc(-n5ncc6cc(C(C)(C)C)cc(F)c6c5=O)c4CO)nn(C)c3=O)nc2)C1 [I-33, 6-tert-Butyl-8-fluoro-2-(2-hydroxymethyl-3-{1-methyl-5-[5-((R)-1-methyl-pyrrolidin-3-yl)-pyridin-2-ylamino]-6-oxo-1,6-dihydro-pyridazin-3-yl}-phenyl)-2H-phthalazin-1-one] | 2 nM
4 | CN1CCN(Cc2ccc(Nc3cc(-c4cccc(-n5ncc6cc(C(C)(C)C)cc(F)c6c5=O)c4CO)nn(C)c3=O)nc2)CC1 [I-41, 6-tert-Butyl-8-fluoro-2-(2-hydroxymethyl-3-{1-methyl-5-[5-(4-methyl-piperazin-1-ylmethyl)-pyridin-2-ylamino]-6-oxo-1,6-dihydro-pyridazin-3-yl}-phenyl)-2H-phthalazin-1-one] | 15 nM
5 | COCCN(C)Cc1ccc(Nc2cc(-c3cccc(-n4ncc5cc(C(C)(C)C)cc(F)c5c4=O)c3CO)nn(C)c2=O)nc1 [I-44, 6-tert-Butyl-8-fluoro-2-{2-hydroxymethyl-3-[5-(5-{[(2-methoxy-ethyl)-methyl-amino]-methyl}-pyridin-2-ylamino)-1-methyl-6-oxo-1,6-dihydro-pyridazin-3-yl]-phenyl}-2H-phthalazin-1-one] | 14 nM
6 | CN1CCN(c2ccc(Nc3cc(-c4cccc(-n5ncc6cc(C(C)(C)C)cc(F)c6c5=O)c4CO)nn(C)c3=O)nn2)CC1 [I-45, 6-tert-Butyl-8-fluoro-2-(2-hydroxymethyl-3-{1-methyl-5-[6-(4-methyl-piperazin-1-yl)-pyridazin-3-ylamino]-6-oxo-1,6-dihydro-pyridazin-3-yl}-phenyl)-2H-phthalazin-1-one] | 27 nM
7 | CN1C[C@@H]2C[C@H]1CN2c1ccc(Nc2cc(-c3cccc(-n4ncc5cc(C(C)(C)C)cc(F)c5c4=O)c3CO)nn(C)c2=O)nn1 [I-46, 6-tert-Butyl-8-fluoro-2-(2-hydroxymethyl-3-{1-methyl-5-[6-((1S,4S)-5-methyl-2,5-diaza-bicyclo[2.2.1]hept-2-yl)-pyridazin-3-ylamino]-6-oxo-1,6-dihydro-pyridazin-3-yl}-phenyl)-2H-phthalazin-1-one] | 293 nM
8 | Cn1nc(-c2cccc(-n3ncc4cc(C(C)(C)C)cc(F)c4c3=O)c2CO)cc(Nc2ccc(C(=O)N3CCC3)cn2)c1=O [I-47, 2-(3-{5-[5-(Azetidine-1-carbonyl)-pyridin-2-ylamino]-1-methyl-6-oxo-1,6-dihydro-pyridazin-3-yl}-2-hydroxymethyl-phenyl)-6-tert-butyl-8-fluoro-2H-phthalazin-1-one] | 76 nM
9 | Cn1nc(-c2cccc(-n3ncc4cc(C(C)(C)C)cc(F)c4c3=O)c2CO)cc(Nc2ccc(C(=O)N3CCS(=O)(=O)CC3)cn2)c1=O [I-48, 6-tert-Butyl-2-(3-{5-[5-(1,1-dioxo-1λ^6-thiomorpholine-4-carbonyl)-pyridin-2-ylamino]-1-methyl-6-oxo-1,6-dihydro-pyridazin-3-yl}-2-hydroxymethyl-phenyl)-8-fluoro-2H-phthalazin-1-one] | 185 nM
10 | Cn1nc(-c2cccc(-n3ncc4cc(C(C)(C)C)cc(F)c4c3=O)c2CO)cc(Nc2ccc(C(=O)N3CC4(COC4)C3)cn2)c1=O [I-49, 2-(3-(5-(5-(2-oxa-6-azaspiro[3.3]heptane-6-carbonyl)pyridin-2-ylamino)-1-methyl-6-oxo-1,6-dihydropyridazin-3-yl)-2-(hydroxymethyl)phenyl)-6-tert-butyl-8-fluorophthalazin-1(2H)-one] | 85 nM
11 | CN1CC2(C1)CN(C(=O)c1ccc(Nc3cc(-c4cccc(-n5ncc6cc(C(C)(C)C)cc(F)c6c5=O)c4CO)nn(C)c3=O)nc1)C2 [I-50, 6-tert-butyl-8-fluoro-2-(2-(hydroxymethyl)-3-(1-methyl-5-(5-(6-methyl-2,6-diazaspiro[3.3]heptane-2-carbonyl)pyridin-2-ylamino)-6-oxo-1,6-dihydropyridazin-3-yl)phenyl)phthalazin-1(2H)-one] | 86 nM
12 | CN(C)CCNC(=O)c1ccc(Nc2cc(-c3cccc(-n4ncc5cc(C(C)(C)C)cc(F)c5c4=O)c3CO)nn(C)c2=O)nc1 [I-51, 6-(6-(3-(6-tert-butyl-8-fluoro-1-oxophthalazin-2(1H)-yl)-2-(hydroxymethyl)phenyl)-2-methyl-3-oxo-2,3-dihydropyridazin-4-ylamino)-N-(2-(dimethylamino)ethyl)nicotinamide] | 19 nM
13 | CN(CCO)C(=O)c1ccc(Nc2cc(-c3cccc(-n4ncc5cc(C(C)(C)C)cc(F)c5c4=O)c3CO)nn(C)c2=O)nc1 [I-52, 6-(6-(3-(6-tert-butyl-8-fluoro-1-oxophthalazin-2(1H)-yl)-2-(hydroxymethyl)phenyl)-2-methyl-3-oxo-2,3-dihydropyridazin-4-ylamino)-N-(2-hydroxyethyl)-N-methylnicotinamide] | 27 nM
14 | Cn1nc(-c2cccc(-n3ncc4cc(C(C)(C)C)cc(F)c4c3=O)c2CO)cc(Nc2ccc(C(=O)N3CC(C#N)C3)cn2)c1=O [I-53, 1-(6-(6-(3-(6-tert-butyl-8-fluoro-1-oxophthalazin-2(1H)-yl)-2-(hydroxymethyl)phenyl)-2-methyl-3-oxo-2,3-dihydropyridazin-4-ylamino)nicotinoyl)azetidine-3-carbonitrile] | 39 nM
15 | Cn1nc(-c2cccc(-n3ncc4cc(C(C)(C)C)cc(F)c4c3=O)c2CO)cc(Nc2ccc(C(=O)N3CCC(O)C3)cn2)c1=O (centres unmarked) [I-54, 6-tert-butyl-8-fluoro-2-(2-(hydroxymethyl)-3-(5-(5-(3-hydroxypyrrolidine-1-carbonyl)pyridin-2-ylamino)-1-methyl-6-oxo-1,6-dihydropyridazin-3-yl)phenyl)phthalazin-1(2H)-one] | 104 nM
16 | Cn1nc(-c2cccc(-n3ncc4cc(C(C)(C)C)cc(F)c4c3=O)c2CO)cc(Nc2ccc(C(=O)N3CCC(O)CC3)cn2)c1=O [I-55, 6-tert-butyl-8-fluoro-2-(2-(hydroxymethyl)-3-(5-(5-(4-hydroxypiperidine-1-carbonyl)pyridin-2-ylamino)-1-methyl-6-oxo-1,6-dihydropyridazin-3-yl)phenyl)phthalazin-1(2H)-one] | 41 nM
17 | CN1CCN(c2ccc(Nc3cc(-c4cccc(-n5ncc6cc(C(C)(C)C)cc(F)c6c5=O)c4CO)nn(C)c3=O)nc2)CC1 [I-56, 6-tert-Butyl-8-fluoro-2-(2-hydroxymethyl-3-{1-methyl-5-[5-(4-methyl-piperazin-1-yl)-pyridin-2-ylamino]-6-oxo-1,6-dihydro-pyridazin-3-yl}-phenyl)-2H-phthalazin-1-one] | 17 nM
18 | Cn1nc(-c2cccc(-n3ncc4cc(C(C)(C)C)cc(F)c4c3=O)c2CO)cc(Nc2ccc(C3CCNCC3)cn2)c1=O [I-61, 6-tert-butyl-8-fluoro-2-(2-(hydroxymethyl)-3-(1-methyl-6-oxo-5-(5-(piperidin-4-yl)pyridin-2-ylamino)-1,6-dihydropyridazin-3-yl)phenyl)phthalazin-1(2H)-one] | 74 nM
19 | Cn1nc(-c2cccc(-n3ncc4cc(C(C)(C)C)cc(F)c4c3=O)c2CO)cc(Nc2ccc(C3CCN(S(C)(=O)=O)CC3)cn2)c1=O [I-62, 6-tert-butyl-8-fluoro-2-(2-(hydroxymethyl)-3-(1-methyl-5-(5-(1-(methylsulfonyl)-piperidin-4-yl)pyridin-2-ylamino)-6-oxo-1,6-dihydropyridazin-3-yl)phenyl)phthalazin-1(2H)-one] | 144 nM
20 | CC(=O)N1CCC(c2ccc(Nc3cc(-c4cccc(-n5ncc6cc(C(C)(C)C)cc(F)c6c5=O)c4CO)nn(C)c3=O)nc2)CC1 [I-63, 2-(3-(5-(5-(1-acetylpiperidin-4-yl)pyridin-2-ylamino)-1-methyl-6-oxo-1,6-dihydropyridazin-3-yl)-2-(hydroxymethyl)phenyl)-6-tert-butyl-8-fluorophthalazin-1(2H)-one] | 189 nM
